The compounds below were run against human σ1 receptor and human μ-opioid receptor (assay: Human σ1 receptor radioligand assay and human μ-opioid receptor radioligand assay (μ and σ1 dual binding)). Conditions: one class for both Ki: σ1 ([3H](+)-pentazocine, transfected HEK-293 membranes) and μ-opioid ([3H]-DAMGO, transfected CHO-K1 membranes).
Design: key to μ and σ1 dual binding: +: Both Ki-μ and Ki-σ1>=500 nM; ++: One K, <500 nM while the other K, is >=500 nM; +++: Both Ki-μ and Ki-σ1<500 nM; ++++: Both Ki-μ and Ki-σ1<100 nM
Procedure: Human σ1 Receptor Radioligand Assay
To investigate binding properties of σ1 receptor ligands to human σ1 receptor, transfected HEK-293 membranes and [^3H](+)-pentazocine (Perkin Elmer, NET-1056), as the radioligand, were used. The assay was carried out with 7 μg of membrane suspension, 5 nM of [^3H](+)-pentazocine in either absence or presence of either buffer or 10 μM Haloperidol for total and non-specific binding, respectively. Binding buffer contained Tris-HCl 50 mM at pH 8. Plates were incubated at 37° C. for 120 minutes. After the incubation period, the reaction mix was then transferred to MultiScreen HTS, FC plates (Millipore), filtered and plates were washed 3 times with ice-cold 10 mM Tris-HCL (pH7.4). Filters were dried and counted at approximately 40% efficiency in a MicroBeta scintillation counter (Perkin-Elmer) using EcoScint liquid scintillation cocktail
Human μ-Opioid Receptor Radioligand Assay
To investigate binding properties of p-opioid receptor ligands to human p-opioid receptor, transfected CHO-K1 cell membranes and [^3H]-DAMGO (Perkin Elmer, ES-542-C), as the radioligand, were used. The assay was carried out with 20 μg of membrane suspension, 1 nM of [^3H]-DAMGO in either absence or presence of either buffer or 10 μM Naloxone for total and non-specific binding, respectively. Binding buffer contained Tris-HCl 50 mM, MgCl2 5 mM at pH 7.4. Plates were incubated at 27° C. for 60 minutes. After the incubation period, the reaction mix was then transferred to MultiScreen HTS, FC plates (Millipore), filtered and plates were washed 3 times with ice-cold 10 mM Tris-HCL (pH 7.4). Filters were dried and counted at approximately 40% efficiency in a MicroBeta scintillation counter (Perkin-Elmer) using
EcoScint liquid scintillation cocktail.
The following scale as been adopted for representing the binding to the σ1 receptor and the μ-opiod receptor expressed as Ki: • + Both Ki-μ and Ki-σ1>=500 nM • ++ One K, <500 nM while the other K, is >=500 nM • +++ Both Ki-μ and Ki-σ1<500 nM • ++++ Both Ki-μ and Ki-σ1<100 nM

| Structure (SMILES) | Ki | μ and σ1 dual binding |
| --- | --- | --- |
| CC(C)S(=O)(=O)Nc1cccc(N2CCN(Cc3cn(-c4ccccn4)cn3)CC2)n1 [Example 62, N-(6-(4-((1-(pyridin-2-yl)-1H-imidazol-4-yl)methyl)piperazin-1-yl)pyridin-2-yl)propane-2-sulfonamide] | < 500 nM |  |
| CS(=O)(=O)Nc1cccc(N2CCN(Cc3cn(-c4ccccc4)nn3)CC2)c1 [Example 4, N-(3-(4-((1-phenyl-1H-1,2,3-triazol-4-yl)methyl)piperazin-1-yl)phenyl)methanesulfonamide] | < 500 nM |  |
| CC(C)S(=O)(=O)Nc1cccc(N2CCN(Cc3cnn(-c4ccccn4)n3)CC2)c1 [Example 24, N-(3-(4-((2-(pyridin-2-yl)-2H-1,2,3-triazol-4-yl)methyl)piperazin-1-yl)phenyl)propane-2-sulfonamide] | ≥ 500 nM |  |
| CC(C)S(=O)(=O)Nc1cccc(N2CCN(Cc3cn(-c4ccc(Cl)cn4)nn3)CC2)n1 [Example 58, N-(6-(4-((1-(5-chloropyridin-2-yl)-1H-1,2,3-triazol-4-yl)methyl)piperazin-1-yl)pyridin-2-yl)propane-2-sulfonamide] |  | ++ |
| CC(C)S(=O)(=O)Nc1cccc(N2CCN(Cc3cn(-c4cncc(Cl)c4)nn3)CC2)n1 [Example 2, N-(6-(4-((1-(5-chloropyridin-3-yl)-1H-1,2,3-triazol-4-yl)methyl)piperazin-1-yl)pyridin-2-yl)propane-2-sulfonamide] |  | ++ |
| CS(=O)(=O)Nc1cccc(N2CCN(Cc3cnn(Cc4ccccn4)c3)CC2)c1 [Example 35, N-(3-(4-((1-(pyridin-2-ylmethyl)-1H-pyrazol-4-yl)methyl)piperazin-1-yl)phenyl)methanesulfonamide] |  | ++ |
| CC(C)S(=O)(=O)Nc1cccc(N2CCN(Cc3cn(-c4ccc(F)cn4)nn3)CC2)c1 [Example 19, N-(3-(4-((1-(5-fluoropyridin-2-yl)-1H-1,2,3-triazol-4-yl)methyl)piperazin-1-yl)phenyl)propane-2-sulfonamide] |  | ++ |
| CC(C)S(=O)(=O)Nc1cccc(N2CCN(Cc3cn(-c4ccccc4)nn3)CC2)n1 [Example 42, N-(6-(4-((1-phenyl-1H-1,2,3-triazol-4-yl)methyl)piperazin-1-yl)pyridin-2-yl)propane-2-sulfonamide] | < 500 nM |  |
| CS(=O)(=O)Nc1cccc(N2CCCN(Cc3cn(-c4ccccc4)nn3)CC2)c1 [Example 25, N-(3-(4-((1-phenyl-1H-1,2,3-triazol-4-yl)methyl)-1,4-diazepan-1-yl)phenyl)methanesulfonamide] | < 500 nM |  |
| Nc1cccc(N2CCN(Cc3cn(-c4ccccc4)nn3)CC2)c1 [Example 31, 3-(4-((1-phenyl-1H-1,2,3-triazol-4-yl)methyl)piperazin-1-yl)aniline] | ≥ 500 nM |  |
| CC(C)S(=O)(=O)Nc1cccc(N2CCN(Cc3cn(-c4ccccc4)nn3)CC2)c1 [Example 1, N-(3-(4-((1-phenyl-1H-1,2,3-triazol-4-yl)methyl)piperazin-1-yl)phenyl)propane-2-sulfonamide] | < 100 nM |  |
| CC(C)S(=O)(=O)Nc1cccc(N2CCN(Cc3cn(-c4ccccc4F)nn3)CC2)n1 [Example 43, N-(6-(4-((1-(2-fluorophenyl)-1H-1,2,3-triazol-4-yl)methyl)piperazin-1-yl)pyridin-2-yl)propane-2-sulfonamide] |  | ++ |
| O=S(=O)(Nc1cccc(N2CCN(Cc3cn(-c4ccccn4)cn3)CC2)n1)C1CC1 [Example 73, N-(6-(4-((1-(pyridin-2-yl)-1H-imidazol-4-yl)methyl)piperazin-1-yl)pyridin-2-yl)cyclopropanesulfonamide] | < 500 nM |  |
| Nc1cccc(N2CCN(Cc3cn(-c4ccccc4F)nn3)CC2)n1 [Example 72, 6-(4-((1-(2-fluorophenyl)-1H-1,2,3-triazol-4-yl)methyl)piperazin-1-yl)pyridin-2-amine] |  | ++ |
| O=S(=O)(Nc1cccc(N2CCN(Cc3cn(-c4ccccc4)nn3)CC2)n1)C1CC1 [Example 51, N-(6-(4-((1-phenyl-1H-1,2,3-triazol-4-yl)methyl)piperazin-1-yl)pyridin-2-yl)cyclopropanesulfonamide] | < 500 nM |  |
| CC(C)S(=O)(=O)Nc1cccc(N2CCN(Cc3cn(-c4cccc(F)n4)nn3)CC2)c1 [Example 29, N-(3-(4-((1-(6-fluoropyridin-2-yl)-1H-1,2,3-triazol-4-yl)methyl)piperazin-1-yl)phenyl)propane-2-sulfonamide] | < 500 nM |  |
| CC(C)S(=O)(=O)Nc1cccc(N2CC3CN(Cc4cn(-c5ccccc5)nn4)CC3C2)c1 (stereo not drawn) [Example 30, N-(3-(5-((1-phenyl-1H-1,2,3-triazol-4-yl)methyl)hexahydropyrrolo[3,4-c]pyrrol-2(1H)-yl)phenyl)propane-2-sulfonamide] | < 100 nM |  |
| CC(C)S(=O)(=O)Nc1cccc(N2CCN(Cc3cn(Cc4ccccn4)nn3)CC2)c1 [Example 16, N-(3-(4-((1-(pyridin-2-ylmethyl)-1H-1,2,3-triazol-4-yl)methyl)piperazin-1-yl)phenyl)propane-2-sulfonamide] |  | ++ |
| CC(C)S(=O)(=O)Nc1cccc(N2CCN(Cc3cn(-c4ncccc4F)nn3)CC2)c1 [Example 21, N-(3-(4-((1-(3-fluoropyridin-2-yl)-1H-1,2,3-triazol-4-yl)methyl)piperazin-1-yl)phenyl)propane-2-sulfonamide] |  | ++ |
| CC(C)S(=O)(=O)Nc1cccc(N2CCCN(Cc3cn(Cc4ccccn4)nn3)CC2)n1 [Example 59, N-(6-(4-((1-(pyridin-2-ylmethyl)-1H-1,2,3-triazol-4-yl)methyl)-1,4-diazepan-1-yl)pyridin-2-yl)propane-2-sulfonamide] |  | ++ |
| CC(C)S(=O)(=O)Nc1cccc(N2CC3CN(Cc4cn(-c5ccccc5)nn4)CC3C2)n1 (stereo not drawn) [Example 53, N-(6-(5-((1-phenyl-1H-1,2,3-triazol-4-yl)methyl)hexahydropyrrolo[3,4-c]pyrrol-2(1H)-yl)pyridin-2-yl)propane-2-sulfonamide] | < 500 nM |  |
| CC(C)S(=O)(=O)Nc1cccc(N2CCN(Cc3cn(-c4ccccn4)nn3)CC2)c1 [Example 17, N-(3-(4-((1-(pyridin-2-yl)-1H-1,2,3-triazol-4-yl)methyl)piperazin-1-yl)phenyl)propane-2-sulfonamide] | < 500 nM |  |
| Cc1ccc(F)c(-n2cc(CN3CCN(c4cccc(NS(=O)(=O)C5CC5)n4)CC3)nn2)c1 [Example 66, N-(6-(4-((1-(2-fluoro-5-methylphenyl)-1H-1,2,3-triazol-4-yl)methyl)piperazin-1-yl)pyridin-2-yl)cyclopropanesulfonamide] |  | ++ |
| O=S(=O)(Nc1cccc(N2CCN(Cc3cn(-c4ncccc4F)nn3)CC2)n1)C1CC1 [Example 64, N-(6-(4-((1-(3-fluoropyridin-2-yl)-1H-1,2,3-triazol-4-yl)methyl)piperazin-1-yl)pyridin-2-yl)cyclopropanesulfonamide] |  | ++ |
| CC(C)S(=O)(=O)Nc1cccc(N2CCCN(Cc3cn(-c4ccccc4)nn3)CC2)n1 [Example 57, N-(6-(4-((1-phenyl-1H-1,2,3-triazol-4-yl)methyl)-1,4-diazepan-1-yl)pyridin-2-yl)propane-2-sulfonamide] | < 100 nM |  |
| CS(=O)(=O)Nc1cccc(N2[C@@H]3CC[C@H]2CN(Cc2cn(-c4ccccc4)nn2)C3)c1 [Example 23, N-(3-((1R,5S)-3-((1-phenyl-1H-1,2,3-triazol-4-yl)methyl)-3,8-diazabicyclo[3.2.1]octan-8-yl)phenyl)methanesulfonamide] |  | ++ |
| CC(C)S(=O)(=O)Nc1cccc(N2CCN(Cc3cnn(-c4ccccn4)c3)CC2)n1 [Example 47, N-(6-(4-((1-(pyridin-2-yl)-1H-pyrazol-4-yl)methyl)piperazin-1-yl)pyridin-2-yl)propane-2-sulfonamide] | < 500 nM |  |
| CC(C)S(=O)(=O)Nc1cccc(N2CCN(Cc3cn(-c4ccccc4O)nn3)CC2)n1 [Example 46, N-(6-(4-((1-(2-hydroxyphenyl)-1H-1,2,3-triazol-4-yl)methyl)piperazin-1-yl)pyridin-2-yl)propane-2-sulfonamide] |  | ++ |
| CC(C)S(=O)(=O)Nc1cccc(N2CC3CN(Cc4cn(Cc5ccccc5)nn4)CC3C2)n1 (stereo not drawn) [Example 54, N-(6-(5-((1-benzyl-1H-1,2,3-triazol-4-yl)methyl)hexahydropyrrolo[3,4-c]pyrrol-2(1H)-yl)pyridin-2-yl)propane-2-sulfonamide] |  | ++ |
| Oc1cccc(N2CCN(Cc3cn(Cc4ccccc4)nn3)CC2)c1 [Example 6, 3-(4-((1-benzyl-1H-1,2,3-triazol-4-yl)methyl)piperazin-1-yl)phenol] |  | ++ |
